| Structure (SMILES) | logP |
| --- | --- |
| CC(CO)Oc1ccccc1 (centres undefined) | 1.5 |
| COCC(C)O (centres undefined) | -0.44 |
| COC(C)COC(C)COC(C)CO (centres undefined) | 0.31 |
| COCC(C)OCC(C)OCC(C)O (centres undefined) | 0.31 |
| CCCOCC(C)OCC(C)O (centres undefined) | 0.99 |
| CCCOC(C)CO (centres undefined) | 0.62 |
| COCC(C)OCC(C)OC(C)=O (centres undefined) | 0.8 |
| CC(O)COc1ccccc1 (centres undefined) | 1.5 |
| CCCCOC(C)COC(C)COC(C)CO (centres undefined) | 1.9 |
| CCCCOCC(C)OCC(C)O (centres undefined) | 1.52 |
| COC(C)COC(C)=O (centres undefined) | 0.43 |
| COC(C)COC(C)CO (centres undefined) | -0.06 |
| CCCCOC(C)CO (centres undefined) | 1.15 |
| CCCCOCC(C)O (centres undefined) | 1.15 |
| CCCOCC(C)O (centres undefined) | 0.62 |
| CCCCOCC(C)OCC(C)OCC(C)O (centres undefined) | 1.9 |
| CCCOC(C)COC(C)CO (centres undefined) | 0.99 |
| COC(C)COC(C)COC(C)=O (centres undefined) | 0.8 |
| COCCCO | -0.44 |

From the SangsterLogP compilation
